Source: article PMC8111429 (2021)

Experiments:
[1] = test system: 22AG (DNA, G4) AGGGTTAGGGTTAGGGTTAGGG; assay: photometric (absorption) titration; details: K+ 110 mM; K-phosphate buffer, pH 7.0, 5% v/v DMSO; ligand 20 µM; per site
[2] = test system: FmycT (DNA, G4) TGAGGGTGGGTAGGGTGGGTA; assay: FRET melting; details: K+ 10 mM, Na+ 10 mM, Li+ 90 mM; KCl–LiCl–cacodylate, pH 7.0; LDR 5; DNA 0.2 mM [sic] (0.2 µM, ligand 1 µM)
[3] = test system: F21T (DNA, G4) GGGTTAGGGTTAGGGTTAGGG; assay: FRET melting; details: K+ 10 mM, Na+ 10 mM, Li+ 90 mM; KCl–LiCl–cacodylate, pH 7.0; LDR 5; DNA 0.2 mM [sic] (0.2 µM, ligand 1 µM)
[4] = test system: Fa2T (DNA, G4) ACAGGGTGTACAGGGTGT; assay: FRET melting; details: K+ 10 mM, Na+ 10 mM, Li+ 90 mM; KCl–LiCl–cacodylate, pH 7.0; LDR 5; DNA 0.2 mM [sic] (0.2 µM, ligand 1 µM)
[5] = test system: FkitT (DNA, G4) AGGGAGGGCGCTGGGAGGAGGG; assay: FRET melting; details: K+ 10 mM, Na+ 10 mM, Li+ 90 mM; KCl–LiCl–cacodylate, pH 7.0; LDR 5; DNA 0.2 mM [sic] (0.2 µM, ligand 1 µM)

| SMILES | Kb [1] | ∆Tm [2] | ∆Tm [3] | ∆Tm [4] | ∆Tm [5] |
| --- | --- | --- | --- | --- | --- |
| COc1c(Oc2ccc(Br)cc2)ccc2cc3[n+](cc12)CCc1cc2c(cc1-3)OCO2 | 5.2 ± 0.3 × 10^5 M^-1 | 2.1 ± 0.5 °C | 1.8 ± 0.5 °C |  |  |
| COc1c(Oc2ccc([N+](=O)[O-])cc2)ccc2cc3[n+](cc12)CCc1cc2c(cc1-3)OCO2 | 7.9 ± 0.3 × 10^5 M^-1 | 1.8 ± 0.5 °C | 3.5 ± 0.5 °C |  |  |
| COc1c(Oc2ccccc2)ccc2cc3[n+](cc12)CCc1cc2c(cc1-3)OCO2 | 8.7 ± 0.2 × 10^5 M^-1 | 0.4 ± 0.5 °C | 3.2 ± 0.5 °C |  | 0.1 ± 0.5 °C |

Next, values leading:

| Kb [1] | ∆Tm [2] | ∆Tm [3] | ∆Tm [4] | ∆Tm [5] | SMILES |
| --- | --- | --- | --- | --- | --- |
| 7.1 ± 0.2 × 10^5 M^-1 |  | 2.6 ± 0.5 °C | 1.2 ± 0.5 °C |  | COc1c(Oc2ccc(Cl)cc2)ccc2cc3[n+](cc12)CCc1cc2c(cc1-3)OCO2 |
| 7.2 ± 0.2 × 10^5 M^-1 |  | 3.9 ± 0.5 °C | 0.1 ± 0.5 °C | 0.6 ± 0.5 °C | COc1ccc(Oc2ccc3cc4[n+](cc3c2OC)CCc2cc3c(cc2-4)OCO3)cc1 |
